From ChEMBL document CHEMBL1201862, “PubChem BioAssay data set” (2004)
The source made the active and inactive calls.

How the values were obtained:
[1] = A small molecule screen for inhibitors of the PhoP region in Salmonella typhi (5) using purified and synthesized compounds. [Related pubchem assays (depositor defined):AID1850, AID1864, AID1985, AID2252, AID2384, AID2612, AID2811, AID434995]; assay type: functional
ORF 73 = ORF 73 (Human herpesvirus 8, UniProt O40947); assay: KSHV LANA DNA-binding disruption – biochemical, fluorescence polarization, cherry-picked samples, dose response (AID 504725); set-up: species or system Human gammaherpesvirus 8;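 also: fluorescence polarization of a labeled DNA duplex reporting LANA DNA binding; potency is for inhibitors that block LANA binding to the DNA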
Keap1/Nrf2 = Keap1/Nrf2 (Homo sapiens, UniProt Q14145); assay: disruptors of Keap1 binding to Nrf2 peptide – biochemical, fluorescence polarization, cherry-picked samples, dose response (AID 588683)
[2] = compound autofluorescence in calcium buffer – biochemical, fluorescence, no RTF in test wells, artefact control for cardiac thin filament activator project, dose response (AID 504697)
Troponin, cardiac muscle = Troponin, cardiac muscle (Homo sapiens, UniProt P19429+P45379+P63316); assay: Fluorescence-based biochemical high throughput dose response assay for activators of the calcium sensitivity of cardiac Regulated Thin Filaments (RTF). [Related pubchem assays (depositor defined):AID493008, AID493018, AID504382, AID504383]; assay type: protein-complex assay
Salmon testes DNA = assay: acridine orange-DNA binding displacement – biochemical, fluorescence polarization, cherry-picked samples, set 2, artefact control for KSHV LANA DNA-binding inhibitor project, dose response (AID 504727); set-up: species or system Salmonidae
[3] = molecular target: Intestinal-type alkaline phosphatase (Homo sapiens, UniProt P09923); assay: human intestinal alkaline phosphatase activators, dose response, biochemical, luminescence, uHTS hits (AID 463120); assay type: functional
[4] = molecular target: Sphingosine 1-phosphate receptor 4 (Homo sapiens, UniProt O95977); assay: Late-stage fluorescence dose response cell-based assay to identify agonists of the Sphingosine 1-Phosphate Receptor 4 (S1P4): purchased compounds EC50. [Related pubchem assays (depositor defined):AID1509, AID1523, AID1563, AID1686, AID1701, AID1801]; assay type: functional
Cannabinoid receptor 1 [5] = molecular target: T1, Cannabinoid receptor 1 (Homo sapiens, UniProt P21554); assay: SAR analysis of antagonists of the Cannabinoid Receptor 1 using an Image-Based Assay - Set 3. [Related pubchem assays (depositor defined):AID1961, AID1965]; assay type: functional
Cannabinoid receptor 2 [6] = molecular target: T2, Cannabinoid receptor 2 (Homo sapiens, UniProt P34972); assay: SAR analysis of antagonists of the Cannabinoid Receptor 2 using an Image-Based Assay - Set 2. [Related pubchem assays (depositor defined):AID1961, AID1965]; assay type: functional
[7] = molecular target: T3, G-protein coupled receptor 35 (Homo sapiens, UniProt Q9HC97); assay: SAR analysis of Antagonists of the GPR35 Receptor using an Image-Based Assay - Set 4. [Related pubchem assays (depositor defined):[…]]; assay type: functional
Cannabinoid receptor 2 [8] = molecular target: T2, Cannabinoid receptor 2; assay: SAR analysis of agonists of the Cannabinoid Receptor 2 using an Image-Based Assay - Set 2. [Related pubchem assays (depositor defined):AID1961, AID1965]; assay type: functional
[9] = molecular target: T3, G-protein coupled receptor 35; assay: SAR analysis of Agonists of the GPR35 Receptor using an Image-Based Assay - Set 3. [Related pubchem assays (depositor defined):AID1961, AID1965]; assay type: functional
Cannabinoid receptor 1 [10] = molecular target: T1, Cannabinoid receptor 1; assay: SAR analysis of agonists of the Cannabinoid Receptor 1 using an Image-Based Assay - Set 3. [Related pubchem assays (depositor defined):AID1961, AID1965]; assay type: functional
[11] = molecular target: G-protein coupled receptor 55 (Homo sapiens, UniProt Q9Y2T6); assay: SAR analysis of selective Agonists of GPR55 using an Image-Based Assay - Set 2. [Related pubchem assays (depositor defined):AID1961, AID1965]; assay type: functional
X-box-binding protein 1 = X-box-binding protein 1 (Homo sapiens, UniProt P17861); assay type: functional, Cricetulus griseus;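 also: confirmatory dose-response counter-screen serving a CHOP assay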
Genome polyprotein = Genome polyprotein (dengue virus type 2, UniProt P29990); assay: flavivirus cap methylation enzyme inhibition – biochemical, confirmation dose response, primary screen (AID 588689); assay type: functional
[12] = molecular target: DNA damage-inducible transcript 3 protein (Mus musculus, UniProt P35639); assay type: functional, Cricetulus griseus
[13] = Luminescence Cell-Based Dose Retest to Confirm Activators of 5'UTR Stem-Loop Driven Alpha-Synuclein mRNA Translation in H4 Neuroglioblastoma Cells. [Related pubchem assays (depositor defined):AID1813, AID1829]; assay type: functional
[14] = Luminescence Cell-Based Dose Response HTS to Identify Activators of Luciferase Translation or Activity in H4-C Neuroglioblastoma Cells. [Related pubchem assays: 1829 (Project Summary), 1814 (Primary HTS)]; assay type: functional
[15] = Luminescence Cell-Based Dose Confirmation HTS to Identify Inhibitors of 5'UTR Stem-Loop Driven Alpha-Synuclein mRNA Translation in H4 Neuroglioblastoma Cells. [Related pubchem assays: 1827 (Project Summary), 1813 (Primary HTS)]; assay type: functional
[16] = Luminescence Cell-Based Dose Response HTS to Identify Inhibitors of Luciferase Translation or Activity in H4-C Neuroglioblastoma Cells. [Related pubchem assays: 1813 (Primary HTS), 1827 (Project Summary)]; assay type: functional
[17] = Luminescence Cell-Based Dose HTS Response to Identify Inhibitors of 5'UTR Stem-Loop Driven Prion Protein mRNA Translation in H4-C Neuroglioblastoma Cells. [Related pubchem assays (depositor defined):AID1814, AID1827]; assay type: functional
[18] = Luminescence Cell-Based Dose Response HTS to Identify Activators of 5'UTR Stem-Loop Driven Prion Protein mRNA Translation in H4-C Neuroglioblastoma Cells. [Related pubchem assays: 1829 (Project Summary), 1814 (Primary HTS)]; assay type: functional
[19] = molecular target: T4, Voltage-gated N-type calcium channel alpha-1B subunit/Amyloid beta A4 precursor protein-binding family A member 1 (Homo sapiens, UniProt Q00975+Q02410); assay type: protein assay
[20] = molecular target: T4, Voltage-gated N-type calcium channel alpha-1B subunit/Amyloid beta A4 precursor protein-binding family A member 1; assay type: protein assay; remark: listed apart in the source
[21] = molecular target: T5, Tyrosine-protein phosphatase non-receptor type 22 (Homo sapiens, UniProt Q9Y2R2); assay: LYP1 Fluorescent Assay using OMFP substrate for In Vitro dose response studies. [Related pubchem assays (depositor defined):AID1779, AID1784, AID435024]
T5 sequence (Q9Y2R2 whole entry): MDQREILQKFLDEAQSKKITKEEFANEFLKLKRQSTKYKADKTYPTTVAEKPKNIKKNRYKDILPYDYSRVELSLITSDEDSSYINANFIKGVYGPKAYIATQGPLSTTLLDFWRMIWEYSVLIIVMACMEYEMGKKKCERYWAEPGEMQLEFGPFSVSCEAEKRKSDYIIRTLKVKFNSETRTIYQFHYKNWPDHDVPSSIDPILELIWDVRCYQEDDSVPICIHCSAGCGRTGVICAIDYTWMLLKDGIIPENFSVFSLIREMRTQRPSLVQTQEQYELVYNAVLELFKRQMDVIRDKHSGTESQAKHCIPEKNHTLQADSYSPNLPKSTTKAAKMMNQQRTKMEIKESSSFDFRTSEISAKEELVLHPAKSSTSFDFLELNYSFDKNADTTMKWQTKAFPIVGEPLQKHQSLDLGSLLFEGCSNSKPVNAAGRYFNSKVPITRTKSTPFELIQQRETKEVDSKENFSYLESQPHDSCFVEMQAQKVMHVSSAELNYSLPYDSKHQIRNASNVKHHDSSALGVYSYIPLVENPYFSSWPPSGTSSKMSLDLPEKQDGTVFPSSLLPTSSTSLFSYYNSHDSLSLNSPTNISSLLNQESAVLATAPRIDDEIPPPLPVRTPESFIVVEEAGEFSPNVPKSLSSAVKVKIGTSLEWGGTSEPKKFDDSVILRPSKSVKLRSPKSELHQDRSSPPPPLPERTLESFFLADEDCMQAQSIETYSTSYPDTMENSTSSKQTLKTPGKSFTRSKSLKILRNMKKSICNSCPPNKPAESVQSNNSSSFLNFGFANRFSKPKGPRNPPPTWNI

[22] = molecular target: DNA (cytosine-5)-methyltransferase 1 (Homo sapiens, UniProt P26358); assay: inhibition of DNA methylation by DNMT1 – biochemical, fluorescent molecular beacon, confirmation (AID 602386); assay type: functional
[23] = molecular target: T5, Tyrosine-protein phosphatase non-receptor type 22; assay: SAR LYP1 Fluorescent Assay using OMFP substrate for In Vitro dose response studies - Set 3. [Related pubchem assays (depositor defined):AID1779, AID1784, AID2140, AID2686]; assay type: functional
[24] = molecular target: Tyrosine-protein phosphatase non-receptor type 12 (Homo sapiens, UniProt Q05209); assay: SAR Selectivity Analysis of small molecule inhibitors of PEST using pCAP in a fluorescence assay. [Related pubchem assays (depositor defined):AID1779, AID1784, AID2135]; assay type: functional
[25] = molecular target: T5, Tyrosine-protein phosphatase non-receptor type 22; assay: SAR LYP1 Fluorescent Assay using OMFP substrate for In Vitro dose response studies - Set 2. [Related pubchem assays (depositor defined):AID1779, AID1784, AID2140, AID449726, AID488869]; assay type: functional
[26] = molecular target: T5, Tyrosine-protein phosphatase non-receptor type 22; assay type: functional
[27] = molecular target: T5, Tyrosine-protein phosphatase non-receptor type 22; assay: SAR LYP1 Fluorescent Assay using pCAP substrate for In Vitro dose response studies - Set 2. [Related pubchem assays (depositor defined):AID1779, AID1784, AID2135, AID449727]; assay type: functional
[28] = molecular target: T6, Tyrosine-protein phosphatase non-receptor type 7 (Homo sapiens, UniProt P35236); assay type: functional
T6 sequence (P35236 whole entry): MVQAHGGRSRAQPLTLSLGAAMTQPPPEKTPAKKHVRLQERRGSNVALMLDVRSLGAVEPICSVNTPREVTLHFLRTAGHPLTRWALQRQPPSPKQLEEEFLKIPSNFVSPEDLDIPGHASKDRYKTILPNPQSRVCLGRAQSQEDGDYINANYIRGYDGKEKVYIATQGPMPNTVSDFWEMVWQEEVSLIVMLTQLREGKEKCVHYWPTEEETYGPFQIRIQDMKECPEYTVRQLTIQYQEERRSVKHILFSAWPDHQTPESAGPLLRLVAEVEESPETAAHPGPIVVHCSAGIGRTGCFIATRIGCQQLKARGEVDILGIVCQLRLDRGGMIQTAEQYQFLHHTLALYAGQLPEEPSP

[29] = molecular target: T6, Tyrosine-protein phosphatase non-receptor type 7; assay: HTS HePTP Fluorescent Assay using OMFP substrate for In Vitro dose response studies. [Related pubchem assays (depositor defined):AID1059, AID1077, AID1784, AID2068, AID2085, AID435032, AID521]; assay type: functional
[30] = molecular target: T5, Tyrosine-protein phosphatase non-receptor type 22; assay type: functional; remark: listed apart in the source
[31] = molecular target: T5, Tyrosine-protein phosphatase non-receptor type 22; assay: PTPN22 lymphoid phosphatase activity blockers – biochemical, fluorescence intensity, uHTS (AID 1779)
[32] = molecular target: T5, Tyrosine-protein phosphatase non-receptor type 22; assay: inhibition of lymphoid tyrosine phosphatase LYP – biochemical, pCAP fluorogenic substrate, fluorescence, set 3, SAR follow-up (AID 449727); assay type: functional

T3 sequence (Q9HC97 whole entry): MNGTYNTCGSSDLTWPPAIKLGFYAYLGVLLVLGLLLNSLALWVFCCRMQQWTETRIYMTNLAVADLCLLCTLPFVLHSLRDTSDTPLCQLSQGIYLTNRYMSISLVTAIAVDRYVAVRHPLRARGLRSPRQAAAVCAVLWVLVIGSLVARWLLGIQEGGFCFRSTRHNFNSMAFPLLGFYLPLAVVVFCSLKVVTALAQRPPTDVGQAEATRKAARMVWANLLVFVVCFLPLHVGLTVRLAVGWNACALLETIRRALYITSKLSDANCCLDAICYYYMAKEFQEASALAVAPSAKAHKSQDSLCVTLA
T4 sequence (Q00975 whole entry): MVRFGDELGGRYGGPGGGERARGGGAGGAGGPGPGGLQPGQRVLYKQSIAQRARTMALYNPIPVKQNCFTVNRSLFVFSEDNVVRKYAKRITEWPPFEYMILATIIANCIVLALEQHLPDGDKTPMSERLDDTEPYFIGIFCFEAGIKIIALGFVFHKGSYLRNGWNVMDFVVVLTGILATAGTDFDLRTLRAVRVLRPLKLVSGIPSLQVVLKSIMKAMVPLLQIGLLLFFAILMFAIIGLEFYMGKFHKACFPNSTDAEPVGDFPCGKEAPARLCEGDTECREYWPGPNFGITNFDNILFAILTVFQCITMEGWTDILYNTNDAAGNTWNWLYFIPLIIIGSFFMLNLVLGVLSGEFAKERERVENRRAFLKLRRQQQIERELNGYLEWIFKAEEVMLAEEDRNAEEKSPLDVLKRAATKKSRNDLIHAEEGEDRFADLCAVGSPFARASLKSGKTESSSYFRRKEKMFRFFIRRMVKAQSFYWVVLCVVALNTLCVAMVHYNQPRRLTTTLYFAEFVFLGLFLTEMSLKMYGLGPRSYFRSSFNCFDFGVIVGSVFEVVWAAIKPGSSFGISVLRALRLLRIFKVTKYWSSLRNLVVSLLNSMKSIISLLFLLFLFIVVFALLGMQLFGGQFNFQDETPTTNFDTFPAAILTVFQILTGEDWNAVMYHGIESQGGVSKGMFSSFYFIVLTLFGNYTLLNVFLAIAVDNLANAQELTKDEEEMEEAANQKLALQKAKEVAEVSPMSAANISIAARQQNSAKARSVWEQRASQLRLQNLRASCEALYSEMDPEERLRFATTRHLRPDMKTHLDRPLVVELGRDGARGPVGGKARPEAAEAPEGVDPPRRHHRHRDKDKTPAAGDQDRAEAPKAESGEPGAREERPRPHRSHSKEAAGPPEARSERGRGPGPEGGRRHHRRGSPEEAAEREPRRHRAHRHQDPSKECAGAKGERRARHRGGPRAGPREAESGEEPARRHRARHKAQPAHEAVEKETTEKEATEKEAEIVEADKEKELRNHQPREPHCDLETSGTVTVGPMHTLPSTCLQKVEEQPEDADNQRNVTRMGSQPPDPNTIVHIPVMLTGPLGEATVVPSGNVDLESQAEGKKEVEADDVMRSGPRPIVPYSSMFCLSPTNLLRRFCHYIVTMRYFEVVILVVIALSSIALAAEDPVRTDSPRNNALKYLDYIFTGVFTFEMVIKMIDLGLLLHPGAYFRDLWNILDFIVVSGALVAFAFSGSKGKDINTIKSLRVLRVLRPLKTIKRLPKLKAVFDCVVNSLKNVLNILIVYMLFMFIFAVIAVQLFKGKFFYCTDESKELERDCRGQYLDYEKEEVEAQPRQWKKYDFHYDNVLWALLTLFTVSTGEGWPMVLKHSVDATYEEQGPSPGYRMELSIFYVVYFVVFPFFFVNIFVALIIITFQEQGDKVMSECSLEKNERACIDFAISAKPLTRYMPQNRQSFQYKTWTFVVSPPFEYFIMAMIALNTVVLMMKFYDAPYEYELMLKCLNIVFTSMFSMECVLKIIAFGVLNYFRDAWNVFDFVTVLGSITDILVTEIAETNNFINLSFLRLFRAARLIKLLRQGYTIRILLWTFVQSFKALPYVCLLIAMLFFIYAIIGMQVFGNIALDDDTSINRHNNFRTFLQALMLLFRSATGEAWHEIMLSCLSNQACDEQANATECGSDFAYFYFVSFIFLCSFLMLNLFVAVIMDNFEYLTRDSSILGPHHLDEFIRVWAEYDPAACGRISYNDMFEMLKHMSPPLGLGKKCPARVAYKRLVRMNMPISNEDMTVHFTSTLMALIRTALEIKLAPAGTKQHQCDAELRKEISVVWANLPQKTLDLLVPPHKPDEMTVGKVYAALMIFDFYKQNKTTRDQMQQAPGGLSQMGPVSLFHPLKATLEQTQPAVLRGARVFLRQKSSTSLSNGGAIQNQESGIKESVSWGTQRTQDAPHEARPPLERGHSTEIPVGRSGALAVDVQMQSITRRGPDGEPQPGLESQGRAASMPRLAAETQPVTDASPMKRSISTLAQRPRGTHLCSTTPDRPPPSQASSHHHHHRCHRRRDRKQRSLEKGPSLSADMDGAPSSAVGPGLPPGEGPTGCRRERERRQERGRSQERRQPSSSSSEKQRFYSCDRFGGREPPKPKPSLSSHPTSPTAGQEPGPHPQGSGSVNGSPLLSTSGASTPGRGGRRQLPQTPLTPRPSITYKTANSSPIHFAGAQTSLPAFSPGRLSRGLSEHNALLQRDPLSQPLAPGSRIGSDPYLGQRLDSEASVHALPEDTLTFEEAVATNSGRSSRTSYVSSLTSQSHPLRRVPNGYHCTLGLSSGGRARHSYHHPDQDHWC
T4 sequence (Q02410 whole entry): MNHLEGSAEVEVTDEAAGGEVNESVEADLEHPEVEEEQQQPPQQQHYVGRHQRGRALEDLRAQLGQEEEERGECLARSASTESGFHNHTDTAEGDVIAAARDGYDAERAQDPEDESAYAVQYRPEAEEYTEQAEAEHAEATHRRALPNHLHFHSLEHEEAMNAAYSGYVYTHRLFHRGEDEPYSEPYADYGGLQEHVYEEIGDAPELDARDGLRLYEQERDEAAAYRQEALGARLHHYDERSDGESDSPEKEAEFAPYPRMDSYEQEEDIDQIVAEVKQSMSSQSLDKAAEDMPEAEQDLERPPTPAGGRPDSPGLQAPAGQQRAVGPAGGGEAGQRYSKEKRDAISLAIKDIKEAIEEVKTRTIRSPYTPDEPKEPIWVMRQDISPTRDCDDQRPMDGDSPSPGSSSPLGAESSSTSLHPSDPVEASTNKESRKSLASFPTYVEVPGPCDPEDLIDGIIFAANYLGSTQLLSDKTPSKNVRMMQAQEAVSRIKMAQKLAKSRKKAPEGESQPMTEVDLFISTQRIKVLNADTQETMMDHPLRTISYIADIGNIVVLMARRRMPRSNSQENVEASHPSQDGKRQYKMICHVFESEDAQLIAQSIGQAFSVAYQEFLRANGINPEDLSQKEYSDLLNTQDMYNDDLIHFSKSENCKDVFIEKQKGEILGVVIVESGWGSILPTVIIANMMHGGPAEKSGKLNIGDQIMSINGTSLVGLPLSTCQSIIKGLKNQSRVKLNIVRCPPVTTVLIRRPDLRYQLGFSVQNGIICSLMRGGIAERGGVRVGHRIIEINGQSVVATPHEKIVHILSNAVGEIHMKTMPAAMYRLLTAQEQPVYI
T1 sequence (P21554 whole entry): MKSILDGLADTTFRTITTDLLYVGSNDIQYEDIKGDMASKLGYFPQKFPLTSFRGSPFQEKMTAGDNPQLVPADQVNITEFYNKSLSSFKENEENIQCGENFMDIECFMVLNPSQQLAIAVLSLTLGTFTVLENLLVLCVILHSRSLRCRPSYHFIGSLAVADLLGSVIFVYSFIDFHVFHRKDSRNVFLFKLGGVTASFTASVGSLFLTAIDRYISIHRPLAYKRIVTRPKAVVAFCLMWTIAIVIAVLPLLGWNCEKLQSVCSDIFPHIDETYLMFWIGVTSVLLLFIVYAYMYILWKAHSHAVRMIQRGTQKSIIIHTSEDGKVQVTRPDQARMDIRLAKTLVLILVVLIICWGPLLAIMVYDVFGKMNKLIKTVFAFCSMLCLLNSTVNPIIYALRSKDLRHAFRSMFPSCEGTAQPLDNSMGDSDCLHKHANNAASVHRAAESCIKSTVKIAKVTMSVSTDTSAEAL
T2 sequence (P34972 whole entry): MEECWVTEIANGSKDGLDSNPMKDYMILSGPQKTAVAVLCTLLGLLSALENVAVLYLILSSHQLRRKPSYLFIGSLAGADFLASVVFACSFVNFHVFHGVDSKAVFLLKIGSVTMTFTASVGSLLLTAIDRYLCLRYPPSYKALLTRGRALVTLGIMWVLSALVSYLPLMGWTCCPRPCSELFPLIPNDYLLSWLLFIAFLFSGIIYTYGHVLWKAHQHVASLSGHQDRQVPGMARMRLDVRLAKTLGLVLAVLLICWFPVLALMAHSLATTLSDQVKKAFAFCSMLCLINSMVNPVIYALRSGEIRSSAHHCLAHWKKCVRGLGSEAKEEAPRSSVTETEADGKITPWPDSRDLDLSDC
Intestinal-type alkaline phosphatase, sequence (P09923 whole entry): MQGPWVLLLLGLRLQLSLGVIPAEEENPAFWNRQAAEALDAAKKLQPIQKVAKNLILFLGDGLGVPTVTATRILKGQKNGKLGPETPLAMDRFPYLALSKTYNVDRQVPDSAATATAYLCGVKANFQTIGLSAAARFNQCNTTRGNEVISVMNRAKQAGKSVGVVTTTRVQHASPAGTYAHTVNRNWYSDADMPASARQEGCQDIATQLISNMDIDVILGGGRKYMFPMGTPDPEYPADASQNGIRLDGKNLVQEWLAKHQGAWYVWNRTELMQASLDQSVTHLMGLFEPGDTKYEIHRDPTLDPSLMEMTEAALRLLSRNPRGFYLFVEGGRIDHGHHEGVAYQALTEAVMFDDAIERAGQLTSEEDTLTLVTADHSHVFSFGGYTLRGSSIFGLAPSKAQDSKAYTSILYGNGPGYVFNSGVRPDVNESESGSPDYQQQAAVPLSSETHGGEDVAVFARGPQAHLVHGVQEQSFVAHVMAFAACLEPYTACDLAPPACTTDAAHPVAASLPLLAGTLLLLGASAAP
DNA damage-inducible transcript 3 protein, sequence (P35639 whole entry): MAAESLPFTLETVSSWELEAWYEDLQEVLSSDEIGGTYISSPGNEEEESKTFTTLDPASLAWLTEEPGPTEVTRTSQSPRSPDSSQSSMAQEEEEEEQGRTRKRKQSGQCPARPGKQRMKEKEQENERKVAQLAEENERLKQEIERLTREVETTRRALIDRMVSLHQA

SMILES: COc1cccc(NC(=O)N2CCCN(Cc3ccccc3F)C2)c1
- IC50 [1]: > 150 µM (active)

SMILES: CN1CC=C2C(C#N)=C(N)C(C#N)(C#N)[C@H](c3ccoc3)[C@H]2C1
- AC50 (ORF 73): 58.9 µM (active)
- AC50 (Keap1/Nrf2): 47.9 µM (active)
- EC50 [2]: > 7.94 µM (active)
- EC50 (Troponin, cardiac muscle): 8.32 µM (active)
- AC50 (Salmon testes DNA): 79 µM (active)

SMILES: COc1cc(/C=N\NS(=O)(=O)c2ccccc2)cc(OC)c1OC
- EC50 [3]: > 100 µM (inactive)

SMILES: CCNC(=O)NC(=O)C(C)OC(=O)c1cc2c(C)nn(Cc3ccc(Cl)cc3)c2s1 (stereo not drawn)
- EC50 [4]: > 50 µM (inactive)

SMILES: CCc1sc(C(=O)Nc2cc(S(=O)(=O)N3CCOCC3)ccc2OC)cc1C
- IC50 (Cannabinoid receptor 1 [5]): > 32 µM (inactive)
- IC50 (Cannabinoid receptor 2 [6]): > 32 µM (inactive)
- IC50 [7]: > 32 µM (inactive)
- EC50 (Cannabinoid receptor 2 [8]): > 32 µM (inactive)
- EC50 [9]: > 32 µM (inactive)
- EC50 (Cannabinoid receptor 1 [10]): > 32 µM (inactive)
- EC50 [11]: > 32 µM (inactive)

SMILES: Nc1cccc2c1C(=O)N(C(=O)/C=C/c1cccc(F)c1)C2=O
- Absolute IC50 (XBP1) (X-box-binding protein 1): 10 µM
- IC50 (Genome polyprotein): > 100 µM (active)
- Absolute IC50 (CHOP) [12]: < 10 µM

SMILES: COc1ccc2c(c1)sc(N)[n+]2Cc1cc(C)cc2cccnc12
- EC50 [13]: 6.36 µM (inconclusive)
- EC50 [14]: 10.3 µM (inconclusive)
- EC50 [15]: 6.36 µM (active)
- EC50 [16]: 10.3 µM (active)
- EC50 [17]: 0.711 µM (active)
- EC50 [18]: 0.711 µM (inconclusive)

SMILES: CCOc1cc(/C=C(\C#N)C(=O)Nc2cccc(C(=O)O)c2)ccc1OCc1ccc(Br)cc1
- IC50 [19]: 44.3 µM (active)
- IC50 [20]: > 50 µM (inactive)
- IC50 [21]: 1.3 µM (active)
- IC50 [22]: 5.4 µM (active)
- IC50 [23]: 0.775 µM (active)
- IC50 [24]: 0.471 µM (active)
- IC50 [25]: 1.54 µM (active)
- IC50 [26]: 3.78 µM (active)
- IC50 [27]: 1.86 µM (active)
- IC50 [28]: 2.41 µM (active)
- IC50 [29]: 4.94 µM (active)
- IC50 [30]: < 1.24 µM (active)
- IC50 [31]: 3.97 µM (active)
- IC50 [32]: 1.74 µM (active)
